Data taken from US10745382B2 (BRISTOL-MYERS SQUIBB COMPANY, priority 2015, dated 2020).

Molecular target: T1, PD-1/PD-L1 (Homo sapiens, UniProt Q9NZQ7)
T1 construct: made in house; host or cells: HEK293T
Assay: PD-1/PD-L1 Homogenous Time-Resolved Fluorescence (HTRF) binding assay
Details: PD-L1-His 10 nM, PD-1-Ig 20 nM; value given as range class; read-out: Range or IC50
In short: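 Binding measured in dPBS with 0.1% BSA and 0.05% Tween-20, detected by HTRF with europium cryptate anti-Ig (1 nM final) and APC anti-His (20 nM final) added over the binding reaction. Counter-assays used human PD-1-Ig/PD-L2-His (20 and 5 nM) and CD80-His/PD-L1-Ig (100 and 10 nM).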

T1 sequence (Q9NZQ7 with tags, fused parts or gaps): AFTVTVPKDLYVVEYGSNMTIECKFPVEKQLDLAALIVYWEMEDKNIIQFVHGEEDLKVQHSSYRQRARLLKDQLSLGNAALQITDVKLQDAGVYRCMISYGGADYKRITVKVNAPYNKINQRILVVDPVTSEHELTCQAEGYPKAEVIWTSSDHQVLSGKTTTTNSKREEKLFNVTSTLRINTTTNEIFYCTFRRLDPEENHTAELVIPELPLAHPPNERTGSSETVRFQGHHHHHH

Compound	IC50 [nM]
Cc1c(COc2cc(OCc3cncc(C#N)c3)c(CN[C@](C)(CO)C(=O)O)cc2Cl)cccc1-c1cccc(OCCCN2CCCC(CO)C2)c1Cl (stereo partly drawn) [Example 2043, (2R)-2-((5-chloro-4-((2′-chloro-3′-(3-(3-(hydroxymethyl)piperidin-1-yl)propoxy)-2-methyl-[1,1′-biphenyl]-3-yl)methoxy)-2-((5-cyanopyridin-3-yl)methoxy)benzyl)amino)-3-hydroxy-2-methylpropanoic Acid]	0.21 to 10
Cc1c(COc2cc(OCc3cncc(C#N)c3)c(CO)cc2Cl)cccc1-c1cccc(OCCCN2CCCC(CO)C2)c1Cl (stereo not drawn) [Example 2044, 5-((4-chloro-5-((2′-chloro-3′-(3-(3-(hydroxymethyl)piperidin-1-yl)propoxy)-2-methyl-[1,1′-biphenyl]-3-yl)methoxy)-2-(hydroxymethyl)phenoxy)methyl)nicotinonitrile]	0.21 to 10
N#Cc1cncc(COc2cc(OCc3cccc(-c4cccc(OCCCN5CCCCC5)c4Cl)c3Cl)c(Cl)cc2CN2CCCC[C@H]2C(=O)O)c1 [Example 2045, (S)-1-(5-chloro-2-((5-cyanopyridin-3-yl)methoxy)-4-((2,2′-dichloro-3′-(3-(piperidin-1-yl)propoxy)-[1,1′-biphenyl]-3-yl)methoxy)benzyl)piperidine-2-carboxylic Acid]	0.21 to 10
N#Cc1cncc(COc2cc(OCc3cccc(-c4cccc(OCCCN5CCCCC5)c4Cl)c3Cl)c(Cl)cc2CO)c1 [Example 2046, 5-((4-chloro-5-((2,2′-dichloro-3′-(3-(piperidin-1-yl)propoxy)-[1,1′-biphenyl]-3-yl)methoxy)-2-(hydroxymethyl)phenoxy)methyl)nicotinonitrile]	0.21 to 10
CC(=O)NC1CCN(CCCOc2cccc(-c3cccc(COc4cc(OCc5cncc(C#N)c5)c(CN5CCCC[C@H]5C(=O)O)cc4Cl)c3Cl)c2Cl)C1 (stereo partly drawn) [Example 2047, (2S)-1-(4-((3′-(3-(3-acetamidopyrrolidin-1-yl)propoxy)-2,2′-dichloro-[1,1′-biphenyl]-3-yl)methoxy)-5-chloro-2-((5-cyanopyridin-3-yl)methoxy)benzyl)piperidine-2-carboxylic Acid]	0.21 to 10
Cc1c(COc2cc(OCc3cncc(C#N)c3)c(CN[C@](C)(CO)C(=O)O)cc2Cl)cccc1-c1cccc(OCCCNC[C@H](O)CO)c1Cl [Example 2048, (R)-2-((5-chloro-4-((2′-chloro-3′-(3-(((S)-2,3-dihydroxypropyl)amino)propoxy)-2-methyl-[1,1′-biphenyl]-3-yl)methoxy)-2-((5-cyanopyridin-3-yl)methoxy)benzyl)amino)-3-hydroxy-2-methylpropanoic Acid]	0.21 to 10
N#Cc1cncc(COc2cc(OCc3cccc(-c4cccc(OCCCNC[C@H](O)CO)c4Cl)c3Cl)c(Cl)cc2CN2CCCC[C@H]2C(=O)O)c1 [Example 2049, (S)-1-(5-chloro-2-((5-cyanopyridin-3-yl)methoxy)-4-((2,2′-dichloro-3′-(3-(((S)-2,3-dihydroxypropyl)amino)propoxy)-[1,1′-biphenyl]-3-yl)methoxy)benzyl)piperidine-2-carboxylic Acid]	0.21 to 10
Cc1c(COc2cc(OCc3cncc(C#N)c3)c(CNC(CO)CO)cc2Cl)cccc1-c1cccc(OCCCN(C)C[C@H](O)CO)c1Cl [Example 2050, (S)-5-((4-chloro-5-((2′-chloro-3′-(3-((2,3-dihydroxypropyl)(methyl)amino)propoxy)-2-methyl-[1,1′-biphenyl]-3-yl)methoxy)-2-(((1,3-dihydroxypropan-2-yl)amino)methyl)phenoxy)methyl)nicotinonitrile]	0.21 to 10
Cc1c(COc2cc(OCc3cncc(C#N)c3)c(CNC(CO)CO)cc2Cl)cccc1-c1cccc(OCCCN2CCCCC2)c1Cl [Example 2051, 5-((4-chloro-5-((2′-chloro-2-methyl-3′-(3-(piperidin-1-yl)propoxy)-[1,1′-biphenyl]-3-yl)methoxy)-2-(((1,3-dihydroxypropan-2-yl)amino)methyl)phenoxy)methyl)nicotinonitrile]	0.21 to 10
CC(=O)NC1CCN(CCCOc2cccc(-c3cccc(COc4cc(OCc5cncc(C#N)c5)c(CNC(CO)CO)cc4Cl)c3C)c2Cl)C1 (stereo not drawn) [Example 2052, N-(1-(3-((2-chloro-3′-((2-chloro-5-((5-cyanopyridin-3-yl)methoxy)-4-(((1,3-dihydroxypropan-2-yl)amino)methyl)phenoxy)methyl)-2′-methyl-[1,1′-biphenyl]-3-yl)oxy)propyl)pyrrolidin-3-yl)acetamide]	0.21 to 10
CC(CO)(CO)NCc1cc(Cl)c(OCc2cccc(-c3cccc(OCCCN4CC[C@@H](O)C4)c3Cl)c2Cl)cc1OCc1cncc(C#N)c1 [Example 2053, (R)-5-((4-chloro-5-((2,2′-dichloro-3′-(3-(3-hydroxypyrrolidin-1-yl)propoxy)-[1,1′-biphenyl]-3-yl)methoxy)-2-(((1,3-dihydroxy-2-methylpropan-2-yl)amino)methyl)phenoxy)methyl)nicotinonitrile]	0.21 to 10
CC(CO)(CO)NCc1cc(Cl)c(OCc2cccc(-c3cccc(OCCCNC[C@H](O)CO)c3Cl)c2Cl)cc1OCc1cncc(C#N)c1 [Example 2054, (S)-5-((4-chloro-5-((2,2′-dichloro-3′-(3-((2,3-dihydroxypropyl)amino)propoxy)-[1,1′-biphenyl]-3-yl)methoxy)-2-(((1,3-dihydroxy-2-methylpropan-2-yl)amino)methyl)phenoxy)methyl)nicotinonitrile]	0.21 to 10
CC(CO)(CO)NCc1cc(Cl)c(OCc2cccc(-c3cccc(OCCCN4CC[C@@H](O)C4)c3Cl)c2Cl)cc1OCc1cc(C#N)ccc1F [Example 2055, (R)-3-((4-chloro-5-((2,2′-dichloro-3′-(3-(3-hydroxypyrrolidin-1-yl)propoxy)-[1,1′-biphenyl]-3-yl)methoxy)-2-(((1,3-dihydroxy-2-methylpropan-2-yl)amino)methyl)phenoxy)methyl)-4-fluorobenzonitrile]	0.21 to 10
Cc1c(COc2cc(OCc3cncc(C#N)c3)c(CNC(CO)CO)cc2Cl)cccc1-c1cccc(OCCCN2CCC(O)(C(=O)O)CC2)c1Cl [Example 2056, 1-(3-((2-chloro-3′-((2-chloro-5-((5-cyanopyridin-3-yl)methoxy)-4-(((1,3-dihydroxypropan-2-yl)amino)methyl)phenoxy)methyl)-2′-methyl-[1,1′-biphenyl]-3-yl)oxy)propyl)-4-hydroxypiperidine-4-carboxylic Acid]	0.21 to 10
Cc1c(COc2cc(OCc3cncc(C#N)c3)c(CN(C)C(CO)CO)cc2Cl)cccc1-c1cccc(OCCCNC[C@H](O)CO)c1Cl [Example 2057, (S)-5-((4-chloro-5-((2′-chloro-3′-(3-((2,3-dihydroxypropyl)amino)propoxy)-2-methyl-[1,1′-biphenyl]-3-yl)methoxy)-2-(((1,3-dihydroxypropan-2-yl)(methyl)amino)methyl)phenoxy)methyl)nicotinonitrile]	0.21 to 10
C[C@](CO)(NCc1cc(Cl)c(OCc2cccc(-c3cccc(OCCCN4CCCCC4)c3Cl)c2Cl)cc1OCc1cncc(C#N)c1)C(=O)O [Example 2058, (R)-2-((5-chloro-2-((5-cyanopyridin-3-yl)methoxy)-4-((2,2′-dichloro-3′-(3-(piperidin-1-yl)propoxy)-[1,1′-biphenyl]-3-yl)methoxy)benzyl)amino)-3-hydroxy-2-methylpropanoic Acid]	0.21 to 10
CC(CO)(CO)NCc1cc(Cl)c(OCc2cccc(-c3cccc(OCCCN4CC[C@@H](O)C4)c3Cl)c2Cl)cc1OCc1cccc(C#N)c1 [Example 2059, (R)-3-((4-chloro-5-((2,2′-dichloro-3′-(3-(3-hydroxypyrrolidin-1-yl)propoxy)-[1,1′-biphenyl]-3-yl)methoxy)-2-(((1,3-dihydroxy-2-methylpropan-2-yl)amino)methyl)phenoxy)methyl)benzonitrile]	0.21 to 10
CC(CO)(CO)NCc1cc(Cl)c(OCc2cccc(-c3cccc(OCCCNC[C@H](O)CO)c3Cl)c2Cl)cc1OCc1cccc(C#N)c1 [Example 2060, (S)-3-((4-chloro-5-((2,2′-dichloro-3′-(3-((2,3-dihydroxypropyl)amino)propoxy)-[1,1′-biphenyl]-3-yl)methoxy)-2-(((1,3-dihydroxy-2-methylpropan-2-yl)amino)methyl)phenoxy)methyl)benzonitrile]	0.21 to 10
Cc1c(COc2cc(OCc3cncc(C#N)c3)c(CN[C@](C)(CO)C(=O)O)cc2Cl)cccc1-c1cccc(OCCCN2CCC(O)(CO)CC2)c1Cl [Example 2061, (R)-2-((5-chloro-4-((2′-chloro-3′-(3-(4-hydroxy-4-(hydroxymethyl)piperidin-1-yl)propoxy)-2-methyl-[1,1′-biphenyl]-3-yl)methoxy)-2-((5-cyanopyridin-3-yl)methoxy)benzyl)amino)-3-hydroxy-2-methylpropanoic Acid]	0.21 to 10
CC(=O)NC1CCN(CCCOc2cccc(-c3cccc(COc4cc(OCc5cncc(C#N)c5)c(CNC(CO)CO)cc4Cl)c3C)c2Cl)CC1 [Example 2062, N-(1-(3-((2-chloro-3′-((2-chloro-5-((5-cyanopyridin-3-yl)methoxy)-4-(((1,3-dihydroxypropan-2-yl)amino)methyl)phenoxy)methyl)-2′-methyl-[1,1′-biphenyl]-3-yl)oxy)propyl)piperidin-4-yl)acetamide]	0.21 to 10
Cc1c(COc2cc(OCc3cncc(C#N)c3)c(CNC(CO)CO)cc2Cl)cccc1-c1cccc(OCCCN2CCC(O)(CO)CC2)c1Cl [Example 2063, 5-((4-chloro-5-((2′-chloro-3′-(3-(4-hydroxy-4-(hydroxymethyl)piperidin-1-yl)propoxy)-2-methyl-[1,1′-biphenyl]-3-yl)methoxy)-2-(((1,3-dihydroxypropan-2-yl)amino)methyl)phenoxy)methyl)nicotinonitrile]	100 to 2000
